In one assay the test system is E. faecium CT-26. In words: MIC determination, E. faecium CT-26. Type of assay: cell-based, Enterococcus faecium. To be noted: for MIC: Enterococcus faecium, CT26, Table 1, read-out: MIC E. faecium CT-26.
In another assay the test system is S. aureus ATCC 29213. In words: MIC determination, S. aureus ATCC 29213. As to conditions: for MIC: Staphylococcus aureus, ATCC29213, Table 1, read-out: MIC S. aureus ATCC 29213. Type of assay: cell-based, Staphylococcus aureus.
Another assay deals with S. pneumoniae ATCC 6301. The assay can be described thus: MIC determination, S. pneumoniae ATCC 6301. Type of assay: cell-based, Streptococcus pneumoniae. As to conditions: for MIC S. pneumoniae ATCC 6301: Table 1.
A further assay concerns E. faecalis ATCC 29212. The assay can be described thus: MIC determination, E. faecalis ATCC 29212. Type of assay: cell-based, Enterococcus faecalis. To be noted: for MIC: Enterococcus faecalis, ATCC29212, Table 1, read-out: MIC E. faecalis ATCC 29212.
The test system of assay [1] is S. epidermidis ATCC 12228. In words: MIC determination, S. epidermidis ATCC 12228. Type of assay: cell-based, Staphylococcus epidermidis. As to conditions: for MIC: Staphylococcus epidermidis, ATCC12228, Table 1, read-out: MIC S. epidermidis ATCC 12228.
Assay [2] deals with M. catarrhalis ATCC 25238. In words: MIC determination, M. catarrhalis ATCC 25238. Type of assay: cell-based. To be noted: for MIC M. catarrhalis ATCC 25238: Table 1.

In brackets after ≈: the same amount, converted by molar mass.

For orientation: MIC means the smallest concentration in the dilution series that meets the test's criterion for growth inhibition.

As to `Oc1ccc(F)c2cccnc12` [Compound 62], the “MIC E. faecium CT-26” value in the assay on E. faecium CT-26 (Table 1) was 4 micrograms per ml. Moreover, in the assay with S. aureus ATCC 29213 (Table 1), the “MIC S. aureus ATCC 29213” value turned out to be 2 micrograms per ml. Also, the “MIC S. pneumoniae ATCC 6301” value against S. pneumoniae ATCC 6301 amounted to 2 micrograms per ml. Moreover, the “MIC E. faecalis ATCC 29212” value with E. faecalis ATCC 29212 (Table 1) was found to be 8 micrograms per ml. In assay [1] (Table 1), the “MIC S. epidermidis ATCC 12228” value is 2 micrograms per ml. In addition, the “MIC M. catarrhalis ATCC 25238” value in assay [2] worked out at 2 micrograms per ml.
`Oc1cccc2cccnc12` [Compound 18, 8-hydroxyquinoline]: the “MIC E. faecium CT-26” value against E. faecium CT-26 (Table 1) is listed as 4 micrograms per ml. The “MIC S. aureus ATCC 29213” value against S. aureus ATCC 29213 (Table 1) amounted to 0.25 micrograms per ml. Also, in the assay on S. pneumoniae ATCC 6301, the “MIC S. pneumoniae ATCC 6301” value came to 2 micrograms per ml. Besides, the “MIC E. faecalis ATCC 29212” value against E. faecalis ATCC 29212 (Table 1) is given as 8 micrograms per ml. Further, the “MIC S. epidermidis ATCC 12228” value in assay [1] (Table 1) was determined as 1 micrograms per ml. In addition, the “MIC M. catarrhalis ATCC 25238” value in assay [2] was found to be 1 micrograms per ml.
On to `Oc1cccc2cccnc12` [Compound 59, 8-hydroxyquinoline], for which the “MIC E. faecium CT-26” value in the assay with E. faecium CT-26 (Table 1) turned out to be 4 micrograms per ml. The “MIC S. aureus ATCC 29213” value against S. aureus ATCC 29213 (Table 1) is 2 micrograms per ml. Further, in the assay on S. pneumoniae ATCC 6301, the “MIC S. pneumoniae ATCC 6301” value worked out at 1 micrograms per ml. The “MIC E. faecalis ATCC 29212” value against E. faecalis ATCC 29212 (Table 1) came out at 8 micrograms per ml. Further, in assay [1] (Table 1), the “MIC S. epidermidis ATCC 12228” value was determined as 1 micrograms per ml. For the same compound, in assay [2], the “MIC M. catarrhalis ATCC 25238” value is recorded as 2 micrograms per ml.
For `Oc1cccc2cccnc12` [Compound 83, 8-hydroxyquinoline], the “MIC E. faecium CT-26” value in the assay on E. faecium CT-26 (Table 1) came out at 4 micrograms per ml. In addition, the “MIC S. aureus ATCC 29213” value against S. aureus ATCC 29213 (Table 1) is recorded as 2 micrograms per ml. For the same compound, the “MIC S. pneumoniae ATCC 6301” value against S. pneumoniae ATCC 6301 was found to be 2 micrograms per ml. Besides, the “MIC E. faecalis ATCC 29212” value in the assay on E. faecalis ATCC 29212 (Table 1) worked out at 4 micrograms per ml. Further, the “MIC S. epidermidis ATCC 12228” value in assay [1] (Table 1) turned out to be 1 micrograms per ml. Besides, the “MIC M. catarrhalis ATCC 25238” value in assay [2] was determined as 2 micrograms per ml.
As to `Oc1cccc2cccnc12` [Compound 41, 8-hydroxyquinoline], in the assay on E. faecium CT-26 (Table 1), the “MIC E. faecium CT-26” value stood at 2 micrograms per ml. For the same compound, in the assay with S. aureus ATCC 29213 (Table 1), the “MIC S. aureus ATCC 29213” value is reported as 1 micrograms per ml. Moreover, the “MIC S. pneumoniae ATCC 6301” value against S. pneumoniae ATCC 6301 was found to be 1 micrograms per ml. In addition, in the assay with E. faecalis ATCC 29212 (Table 1), the “MIC E. faecalis ATCC 29212” value worked out at 4 micrograms per ml. In assay [1] (Table 1), the “MIC S. epidermidis ATCC 12228” value came to 1 micrograms per ml. The “MIC M. catarrhalis ATCC 25238” value in assay [2] is 1 micrograms per ml.
Turning to `Oc1c(Br)cc(Br)c2cccnc12` [Compound 24], the MIC was determined as 32 µg/mL (≈ 106 µM) with E. faecium CT-26; 0.5 µg/mL (≈ 1.65 µM) with S. aureus ATCC 29213; 8 µg/mL (≈ 26.4 µM) in the assay with S. pneumoniae ATCC 6301 (Streptococcus pneumoniae, ATCC6301, Table 1, read-out: MIC S. pneumoniae ATCC 6301); 64 µg/mL (≈ 211 µM) with E. faecalis ATCC 29212; 8 µg/mL (≈ 26.4 µM) in assay [1]; 0.12 µg/mL (≈ 0.396 µM) in assay [2] (Moraxella catarrhalis, ATCC25238, Table 1, read-out: MIC M. catarrhalis ATCC 25238).
In the case of `Oc1cccc2cccnc12` [Compound 76, 8-hydroxyquinoline], the “MIC E. faecium CT-26” value in the assay on E. faecium CT-26 (Table 1) was determined as 4 micrograms per ml. Further, the “MIC S. aureus ATCC 29213” value in the assay on S. aureus ATCC 29213 (Table 1) was determined as 2 micrograms per ml. In addition, in the assay with E. faecalis ATCC 29212 (Table 1), the “MIC E. faecalis ATCC 29212” value is 8 micrograms per ml. Besides, the “MIC S. epidermidis ATCC 12228” value in assay [1] (Table 1) was determined as 1 micrograms per ml.
The matching figures for `CB(Oc1cccc2cccnc12)c1cccs1` [Compound 26, (2-Thienyl)methylborinic acid 8-hydroxyquinoline ester]: 4 micrograms per ml, 0.5 micrograms per ml, 4 micrograms per ml and 1 micrograms per ml.
On to `Oc1cccc2nc[nH]c12` [Compound 11, 4-hydroxybenzimidazole], for which the MIC in the assay with E. faecium CT-26 came to 8 µg/mL (≈ 59.6 µM); in the assay with S. aureus ATCC 29213 it was 0.125 µg/mL (≈ 0.932 µM); with E. faecalis ATCC 29212, 8 µg/mL (≈ 59.6 µM); in assay [1], 4 µg/mL (≈ 29.8 µM).
Regarding 4-hydroxybenzimidazole [Compound 120], the “MIC E. faecium CT-26” value against E. faecium CT-26 (Table 2) came out at 8 micrograms per ml. Also, the “MIC S. aureus ATCC 29213” value against S. aureus ATCC 29213 (Table 2) is reported as 0.125 micrograms per ml. Moreover, in the assay on E. faecalis ATCC 29212 (Table 2), the “MIC E. faecalis ATCC 29212” value turned out to be 8 micrograms per ml. In assay [1] (Table 2), the “MIC S. epidermidis ATCC 12228” value is 4 micrograms per ml.
Take `Oc1cccc2cccnc12` [Compound 30, 8-hydroxyquinoline]: in the assay with E. faecium CT-26 (Table 1), the “MIC E. faecium CT-26” value is reported as 2 micrograms per ml. In the assay on S. aureus ATCC 29213 (Table 1), the “MIC S. aureus ATCC 29213” value worked out at 1 micrograms per ml. Also, the “MIC E. faecalis ATCC 29212” value against E. faecalis ATCC 29212 (Table 1) is given as 2 micrograms per ml. Moreover, the “MIC S. epidermidis ATCC 12228” value in assay [1] (Table 1) is reported as 0.5 micrograms per ml.
With `O=C(O)c1cc(O)c2ccccc2n1` [Compound 31], the MIC in the assay on E. faecium CT-26 came to 1 µg/mL (≈ 5.29 µM); with S. aureus ATCC 29213, 1 µg/mL (≈ 5.29 µM); with E. faecalis ATCC 29212, 2 µg/mL (≈ 10.6 µM); in assay [1], 1 µg/mL (≈ 5.29 µM).
